Experimental data taken from article PMC9264115, “Pd-catalyzed C–C and C–N cross-coupling reactions in 2-aminothieno[3,2-d]pyrimidin-4(3H)-one series for antiplasmodial pharmacomodulation” (RSC Advances, 2022).
Read-outs that look alike come from different tables or passages of the source.

Tests used:
[1] = tested on: K1 culture-adapted P. falciparum strain; design: method as in PMID 25791675; conditions: K1 strain of P. falciparum; reference values; read-out: EC50 PfK1; cited from earlier work
HepG2 cell line = conditions: cited from earlier work
Microsomal stability = assay type: in vitro ADME, mouse; conditions: for half-life: CD-1, read-out: t1/2 (half-time, microsomal stability); for half-life / Clint (intrinsic clearance): in vitro, female mouse microsomes, 37 °C, pH 7.4
Description: The tested product and propranolol, used as a reference, were incubated in duplicate (reaction mixture volume of 0.5 mL) with female mouse microsomes (CD-1, 20 mg mL; BD Gentest) at 37 °C in a 50 mM phosphate buffer, pH 7.4, in the presence of MgCl2 (5 mM), NADP (1 mM), glucose-6-phosphate dehydrogenase (G6PD) (0.4 U per mL), and glucose-6-phosphate (5 mM). For the estimation of the intrinsic clearance, 50 μL aliquots were collected at 0, 5, 10, 20, 30, and 40 min and the reaction was stopped with 4 volumes of acetonitrile (ACN) containing the internal standard. After centrifugation at 10 000×g for 10 min at 4 °C, the supernatants were conserved at 4 °C for immediate analysis or placed at −80 °C in case of postponement of the analysis. Controls (time zero and final time point) in triplicate were prepared by the incubation of the internal standard with microsomes denatured by acetonitrile. The LC-MS system used for this study was a Waters Acquity I-Class/Xevo TQD equipped with a Waters Acquity BEH C18 column, 50 by 2.1 mm, 1.7 μm. The mobile phases were 10 mM ammonium acetate (mobile phase A) and acetonitrile with 0.1% formic acid (mobile phase B). The injection volume was 1 μL, and the flow rate was 600 μL min^−1. Chromatographic analysis, with a total duration of 4 min, was made with the following gradient: 0 < t < 0.2 min, 2% mobile phase B; 0.2 < t < 2 min, linear increase to 98% mobile phase B; 2 < t < 2.5 min, 98% mobile phase B; 2.5 < t < 2.6 min, linear decrease to 2% mobile phase B; 2.6 < t < 4 min, 2% mobile phase B. The quantification of each compound was obtained by converting the average of the ratios of the analyte/internal standard surfaces to the percentage of consumed product. The ratio of the control at t0 corresponded to 0% of the product consumed. The calculation of the half-life (t1/2) of each compound in the presence of microsomes was carried out according to the equation t1/2 = (ln2)/k, where k is the first-order degradation constant (the slope of the logarithm of the compound concentration versus incubation time). The intrinsic clearance in vitro (Clint, expressed in mlmin^−1mg) was calculated according to the equation Clint = (dose/AUC∞)/[microsomes], where dose is the initial concentration of the product in the sample, AUC∞ is the area under the concentration–time curve extrapolated to infinity, and [microsomes] is the microsome concentration expressed in mg μL^−1.

[2] = Cytotoxic evaluation, MTT assay; assay type: cell-based; conditions: HepG2 cells, human HepG2 cell line, three independent experiments
Description: The HepG2 cell line was maintained at 37 °C, 5% CO2, at 90% humidity in […] supplemented with 10% fetal bovine serum, 1% L-glutamine (200 mM), and penicillin (100 U per mL)/streptomycin (100 μg mL^−1) (complete RPMI medium). The cytotoxicity of the tested molecules on the HepG2 (hepatocarcinoma cell line purchased from ATCC, ref HB-8065) cell line was assessed according to the method of Mosmann[20] with slight modifications. Briefly, 5 × 10^3 cells in 100 μL of complete medium were inoculated into each well of 96-well plates and incubated at 37 °C in humidified 5% CO2. After 24 h incubation, 100 μL of medium with various product concentrations dissolved in DMSO (final concentration less than 0.5% v/v) were added and the plates were incubated for 72 h at 37 °C. Triplicate assays were performed for each sample. Each plate was then microscopically examined for possible precipitate formation before the medium was aspirated from the wells. Next, 100 μL of MTT (3-(4,5-dimethyl-2-thiazolyl)-2,5-diphenyl-2H-tetrazolium bromide) solution (0.5 mg mL^−1 in medium without FBS) was added to each well. Cells were incubated for 2 h at 37 °C. After this time, the MTT solution was removed and DMSO (100 μL) was added to dissolve the resulting blue formazan crystals. Plates were shaken vigorously (700 rpm) for 10 min. The absorbance was measured at 570 nm with 630 nm as a reference wavelength using a BIO-TEK ELx808 Absorbance Microplate Reader (LabX, Midland, ON, Canada). DMSO was used as a blank and doxorubicin (purchased from Sigma Aldrich) as a positive control. Cell viability was calculated as a percentage of control (cells incubated without the compound). […] CC50 values to represent the mean value calculated from three independent experiments.

[3] = tested on: K1 culture-adapted P. falciparum strain; experiment: Antiplasmodial evaluation, SYBR Green I fluorescence-based drug susceptibility test; assay type: cell-based; conditions: for EC50: Plasmodium falciparum, multi-resistant K1 strain of P. falciparum, 72 h incubation, three independent experiments, read-out: EC50 PfK1; for SI (selectivity index): from CC50 HepG2 and EC50 PfK1
Description: […]. Parasitemia was maintained daily between 1 and 3%. The P. falciparum drug susceptibility test was carried out by comparing quantities of DNA in treated and control cultures of parasite in human erythrocytes according to a SYBR Green I fluorescence-based method[19] using a 96-well fluorescence plate reader. Compounds previously dissolved in DMSO (final concentration less than 0.5% v/v) were incubated in a total assay volume of 200 μL (RPMI, 2% hematocrit and 0.4% parasitemia) for 72 h in a humidified atmosphere (10% O2 and 5% CO2) at 37 °C in 96-well flat bottom plates. Duplicate assays were performed for each sample. After incubation, plates were frozen at […] for 24 h. Then, the frozen plates were thawed for 1 h at 37 °C. Fifteen μL of each sample were transferred to 96-well flat bottom non-sterile black plates (Greiner Bio-one, Kremsmünster, Austria), already containing 15 μL of the SYBR Green I lysis buffer (2X SYBR Green I, 20 mM Tris base pH 7.5, 20 mM EDTA, 0.008% w/v saponin, 0.08% w/v Triton X-100). […] Plates were incubated for 15 min at 37 °C and then read on a TECAN Infinite F-200 spectrophotometer with excitation and emission wavelengths at 485 and 535 nm, respectively.

[4] = read-out: CC50 HepG2, human HepG2 cell line, reference values

| Structure (SMILES) | EC50 [3] [µM] | melting point [°C] | EC50 [1] [µM] | CC50 at 72 h [2] [µM] | SI (selectivity index) [3] | also measured |
| --- | --- | --- | --- | --- | --- | --- |
| O=C1C(O)=C([C@H]2CC[C@H](c3ccc(Cl)cc3)CC2)C(=O)c2ccccc21 [Atovaquone, atovaquone] |  |  | 0.0013 |  |  | CC50 (HepG2 cell line; [4]): > 15.6 µM |
| CCN(CC)CCCC(C)Nc1ccnc2cc(Cl)ccc12 (stereo not drawn) [Chloroquine, chloroquine] |  |  | 0.5 |  |  |  |
| CC(C)(C)Nc1nc2cc(N3CCCCC3)sc2c(=O)[nH]1 [Compound 1g, 2-tert-Butylamino-6-(piperidin-1-yl)thieno[3,2-d]pyrimidin-4(3H)-one] | 0.77 ± 0.13 |  |  | 33.9 ± 1.4 |  | half-life (Microsomal stability): 40 min; Clint (intrinsic clearance) (Microsomal stability): 42 μLmin^−1mg; improvement in the half-time versus M1 (Microsomal stability; mouse microsomes, piperidine moiety (1g) vs tolyl moiety (M1)): more than 3 fold |
| CSc1ccc(-c2cc3nc(NC(C)(C)C)[nH]c(=O)c3s2)cc1 [Compound 4j, 2-tert-Butylamino-6-[4-(methylsulfanyl)phenyl]thieno[3,2-d]pyrimidin-4(3H)-one] | 1 ± 0.3 | 272 to 274 |  | > 12.5 | >12.5 |  |
| CC(C)(C)Nc1nc2cc(-c3ccc(S(N)(=O)=O)cc3)sc2c(=O)[nH]1 [Compound 4l, 4-(2-tert-Butylamino-4-oxo-3,4-dihydrothieno[3,2-d]pyrimidin-6-yl)benzenesulfonamide] | > 12.5 | > 300 |  | > 6.25 |  |  |
| Cc1ccc(-c2cc3nc(NC(C)(C)C)[nH]c(=O)c3s2)cc1 [Compound M1, gamhepathiopine, reference compound] |  |  | 0.045 |  |  | CC50 (HepG2 cell line; [4]): 24 µM; half-life (Microsomal stability): 11 min; Clint (intrinsic clearance) (Microsomal stability): 240 μLmin^−1mg |
| COc1cccc2c1C(=O)c1c(O)c3c(c(O)c1C2=O)C[C@@](O)(C(=O)CO)C[C@@H]3O[C@H]1C[C@H](N)[C@H](O)[C@H](C)O1 [Doxorubicine, doxorubicine] |  |  |  |  |  | CC50 (HepG2 cell line): 0.2 µM |
| C[C@H]1c2cccc(O)c2C(=O)C2=C(O)[C@]3(O)C(=O)C(C(N)=O)=C(O)[C@@H](N(C)C)[C@@H]3[C@@H](O)[C@@H]21 [Doxycycline, doxycycline] |  |  | 5 |  |  | CC50 (HepG2 cell line; [4]): 20 µM |
| Cc1ccc(-c2cc3nc(NC(C)(C)C)[nH]c(=O)c3s2)cc1 [M1 (free base), gamhepathiopine] |  |  | 0.2 |  |  | CC50 (HepG2 cell line; [4]): 25.6 µM |

Continued, in another order:

| EC50 [3] [µM] | melting point [°C] | Structure (SMILES) | EC50 [1] [µM] | CC50 at 72 h [2] [µM] | SI (selectivity index) [3] | also measured |
| --- | --- | --- | --- | --- | --- | --- |
| 5.1 ± 2.6 | > 300 | CC(C)(C)Nc1nc2cc(-c3ccc(S(=O)(=O)N4CCOCC4)cc3)sc2c(=O)[nH]1 [Compound 4m, 2-tert-Butylamino-6-[4-(morpholin-4-ylsulfonyl)phenyl]thieno[3,2-d]pyrimidin-4(3H)-one] |  | > 12.5 | >2.5 |  |
| 2.1 ± 0.6 | > 300 | CC(C)(C)Nc1nc2cc(-c3cnc(N4CCOCC4)nc3)sc2c(=O)[nH]1 [Compound 4n, 2-tert-Butylamino-6-[2-(morpholin-4-yl)pyrimidin-5-yl]thieno[3,2-d]pyrimidin-4(3H)-one] |  | 26.4 ± 4.6 | 12.6 |  |
| 4.4 ± 1 | 289 to 291 | CN1CCN(c2ncc(-c3cc4nc(NC(C)(C)C)[nH]c(=O)c4s3)cn2)CC1 [Compound 4o, 2-tert-Butylamino-6-[2-(4-methylpiperazin-1-yl)pyrimidin-5-yl]thieno[3,2-d]pyrimidin-4(3H)-one] |  | 11.2 ± 1.3 | 2.5 |  |
| 3.5 ± 1.2 | 259 to 261 | CC(C)(C)Nc1nc2cc(-c3ccc(N)cc3)sc2c(=O)[nH]1 [Compound 4p, 6-(4-aminophenyl)-2-tert-butylaminothieno[3,2-d]pyrimidin-4(3H)-one] |  | 2.5 ± 1 | 0.7 |  |
| 3.9 ± 1.1 | > 300 | CC(=O)Nc1ccc(-c2cc3nc(NC(C)(C)C)[nH]c(=O)c3s2)cc1 [Compound 4r, N-[4-(2-tert-butylamino-4-oxo-3,4-dihydrothieno[3,2-d]pyrimidin-6-yl)phenyl]acetamide] |  | 0.16 ± 0.04 | <0.1 |  |
| > 12.5 | 251 to 253 | CC(C)(C)Nc1nc2cc(-c3ccc(S(C)(=N)=O)cc3)sc2c(=O)[nH]1 (stereo not drawn) [Compound 4s, 2-tert-Butylamino-6-[4-(methylsulfonimidoyl)phenyl]thieno[3,2-d]pyrimidin-4(3H)-one] |  | 63.3 ± 14.6 | <5.1 |  |
